According to ChEMBL document CHEMBL4184185, “Dihydrobenzisoxazole-4-one compounds are novel selective inhibitors of aldosterone synthase (CYP11B2) with in vivo activity” (Bioorg Med Chem Lett, 2018):

What was measured:
[1] = target: Cytochrome P450 2D6 (Homo sapiens, UniProt P10635); assay: Inhibition of CYP2D6 (unknown origin) at 30 uM; type: ADME
[2] = Clearance in cynomolgus monkey hepatocytes relative to hepatic blood flow; type: ADME, cell-based, Macaca fascicularis, Hepatocyte; settings: read-out: CLH
[3] = Oral bioavailability in Beagle dog; type: ADME, organism-based, Canis lupus familiaris; settings: in vivo
[4] = tested on: Rattus norvegicus; assay: Clearance in iv dosed Wistar Han rat relative to hepatic blood flow; type: ADME, organism-based; settings: in vivo
[5] = tested on: Cynomolgus monkey; assay: In vivo inhibition of ACTH-stimulated aldosterone level in cynomolgus monkey assessed as change in plasma aldosterone AUC (0 to 3 hrs) at 0.1 mg/kg, iv administered 5 mins before ACTH challenge relative to control; type: functional, Macaca fascicularis; set-up: scale not given: the % may be the effect or the level left
[6] = Inhibition of cynomolgus monkey adrenal mitochondrial CYP11B2 using corticosterone as substrate after 60 mins in presence of NADPH by mass spectrometric analysis
[7] = Unbound plasma concentration in ACTH-stimulated cynomolgus monkey at 0.1 mg/kg, iv administered 5 mins before ACTH challenge measured after 3 hrs; type: ADME, organism-based, Macaca fascicularis; settings: in vivo
[8] = target: T1, Aromatase (Homo sapiens, UniProt P11511); assay: Inhibition of CYP19A1 (unknown origin)
T1 sequence (P11511 whole entry): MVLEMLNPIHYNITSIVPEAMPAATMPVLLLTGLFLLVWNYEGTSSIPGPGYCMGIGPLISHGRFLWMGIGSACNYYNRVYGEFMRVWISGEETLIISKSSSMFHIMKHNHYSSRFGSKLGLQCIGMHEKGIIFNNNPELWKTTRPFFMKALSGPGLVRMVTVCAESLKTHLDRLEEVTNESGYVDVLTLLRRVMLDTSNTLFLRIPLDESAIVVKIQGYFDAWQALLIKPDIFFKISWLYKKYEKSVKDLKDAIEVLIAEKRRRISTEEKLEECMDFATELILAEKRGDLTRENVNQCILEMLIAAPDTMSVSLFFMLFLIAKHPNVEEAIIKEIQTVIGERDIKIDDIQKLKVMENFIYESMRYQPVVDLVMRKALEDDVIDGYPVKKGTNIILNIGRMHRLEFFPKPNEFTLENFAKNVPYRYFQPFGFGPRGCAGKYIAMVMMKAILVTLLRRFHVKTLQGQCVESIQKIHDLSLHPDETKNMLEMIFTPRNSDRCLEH

[9] = Oral bioavailability in Wistar Han rat; type: ADME, organism-based; settings: in vivo
[10] = tested on: Canis familiaris; assay: Clearance in iv dosed Beagle dog relative to hepatic blood flow; type: ADME, organism-based, Canis lupus familiaris; settings: in vivo
[11] = Unbound plasma concentration in ACTH-stimulated cynomolgus monkey at 8 mg/kg, iv administered 5 mins before ACTH challenge measured at 15 mins post dose; type: ADME, organism-based, Macaca fascicularis; settings: in vivo, 0.25 h
[12] = target: Cytochrome P450 2C9 (Homo sapiens, UniProt P11712); assay: Inhibition of CYP2C9 (unknown origin) at 30 uM; type: ADME
[13] = target: T1, Aromatase; assay: Inhibition of CYP19A1 (unknown origin) at 20 uM
[14] = species on record: Macaca fascicularis; assay: Selectivity index, ratio of IC50 for cynomolgus monkey adrenal mitochondrial CYP11B1 to IC50 for cynomolgus monkey adrenal mitochondrial CYP11B2
[15] = Clearance in human liver microsomes relative to hepatic blood flow; type: ADME, microsome; settings: read-out: CLH
[16] = tested on: Cynomolgus monkey; assay: Effect on ACTH-stimulated plasma cortisol level in cynomolgus monkey up to 8 mg/kg, iv administered 5 mins before ACTH challenge measured after 3 hrs; type: ADME, organism-based, Macaca fascicularis; settings: in vivo
[17] = Plasma concentration in ACTH-stimulated cynomolgus monkey at 0.1 mg/kg, iv administered 5 mins before ACTH challenge measured after 3 hrs; type: ADME, organism-based, Macaca fascicularis
[18] = Clearance in Wistar Han rat hepatocytes relative to hepatic blood flow; type: ADME, cell-based, Hepatocyte; settings: read-out: CLH
[19] = Plasma concentration in ACTH-stimulated cynomolgus monkey at 8 mg/kg, iv administered 5 mins before ACTH challenge measured at 15 mins post dose; type: ADME, organism-based, Macaca fascicularis
[20] = Inhibition of cynomolgus monkey adrenal mitochondrial CYP11B1 using 11-deoxycortisol as substrate after 90 mins in presence of NADPH by mass spectrometric analysis
[21] = tested on: Cynomolgus monkey; assay: In vivo inhibition of ACTH-stimulated aldosterone level in iv dosed cynomolgus monkey assessed as change in plasma aldosterone AUC (0 to 3 hrs) administered 5 mins before ACTH challenge; type: functional, organism-based; settings: Macaca fascicularis
[22] = Clearance in human hepatocytes relative to hepatic blood flow; type: ADME, cell-based, Hepatocyte; settings: read-out: CLH
[23] = Clearance in Beagle dog hepatocytes relative to hepatic blood flow; type: ADME, cell-based, Canis lupus familiaris, Hepatocyte; settings: read-out: CLH
[24] = tested on: Cynomolgus monkey; assay: Clearance in iv dosed cynomolgus monkey relative to hepatic blood flow; type: ADME, organism-based, Macaca fascicularis; settings: in vivo
[25] = tested on: Cynomolgus monkey; assay: In vivo inhibition of ACTH-stimulated aldosterone level in cynomolgus monkey assessed as change in plasma aldosterone AUC (0 to 3 hrs) at 1 mg/kg, iv administered 5 mins before ACTH challenge relative to control; type: functional, Macaca fascicularis; set-up: scale not given: the % may be the effect or the level left
[26] = tested on: Cynomolgus monkey; assay: In vivo inhibition of ACTH-stimulated aldosterone level in cynomolgus monkey assessed as change in plasma aldosterone AUC (0 to 3 hrs) at 8 mg/kg, iv administered 5 mins before ACTH challenge relative to control; type: functional, Macaca fascicularis; set-up: scale not given: the % may be the effect or the level left
[27] = target: Cytochrome P450 3A4 (Homo sapiens, UniProt P08684); assay: Inhibition of CYP3A4 (unknown origin) at 30 uM; type: ADME
[28] = Oral bioavailability in cynomolgus monkey; type: ADME, organism-based, Macaca fascicularis; settings: in vivo
[29] = Plasma concentration in ACTH-stimulated cynomolgus monkey at 0.1 mg/kg, iv administered 5 mins before ACTH challenge measured at 15 mins post dose; type: ADME, organism-based, Macaca fascicularis
[30] = target: T2, Steroid 17-alpha-hydroxylase/17,20 lyase (Homo sapiens, UniProt P05093); assay: Inhibition of CYP17A1 (unknown origin); type: ADME
T2 sequence (P05093 whole entry): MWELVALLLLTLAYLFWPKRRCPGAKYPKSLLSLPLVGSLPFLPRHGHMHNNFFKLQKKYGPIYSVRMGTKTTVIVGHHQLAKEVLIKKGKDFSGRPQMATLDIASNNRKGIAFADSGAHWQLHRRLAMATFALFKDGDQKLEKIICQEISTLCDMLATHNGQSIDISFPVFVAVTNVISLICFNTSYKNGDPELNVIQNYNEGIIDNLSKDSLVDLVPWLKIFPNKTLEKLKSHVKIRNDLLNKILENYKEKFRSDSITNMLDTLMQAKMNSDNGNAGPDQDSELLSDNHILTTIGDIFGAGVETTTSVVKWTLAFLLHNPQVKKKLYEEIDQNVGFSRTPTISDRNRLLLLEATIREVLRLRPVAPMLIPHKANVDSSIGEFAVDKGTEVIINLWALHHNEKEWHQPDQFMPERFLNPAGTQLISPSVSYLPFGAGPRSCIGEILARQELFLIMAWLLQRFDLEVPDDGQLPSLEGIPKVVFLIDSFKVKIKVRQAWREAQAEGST

[31] = Unbound plasma concentration in ACTH-stimulated cynomolgus monkey at 0.1 mg/kg, iv administered 5 mins before ACTH challenge measured at 15 mins post dose; type: ADME, organism-based, Macaca fascicularis; settings: in vivo, 0.25 h

Cytochrome P450 3A4, sequence (P08684 whole entry): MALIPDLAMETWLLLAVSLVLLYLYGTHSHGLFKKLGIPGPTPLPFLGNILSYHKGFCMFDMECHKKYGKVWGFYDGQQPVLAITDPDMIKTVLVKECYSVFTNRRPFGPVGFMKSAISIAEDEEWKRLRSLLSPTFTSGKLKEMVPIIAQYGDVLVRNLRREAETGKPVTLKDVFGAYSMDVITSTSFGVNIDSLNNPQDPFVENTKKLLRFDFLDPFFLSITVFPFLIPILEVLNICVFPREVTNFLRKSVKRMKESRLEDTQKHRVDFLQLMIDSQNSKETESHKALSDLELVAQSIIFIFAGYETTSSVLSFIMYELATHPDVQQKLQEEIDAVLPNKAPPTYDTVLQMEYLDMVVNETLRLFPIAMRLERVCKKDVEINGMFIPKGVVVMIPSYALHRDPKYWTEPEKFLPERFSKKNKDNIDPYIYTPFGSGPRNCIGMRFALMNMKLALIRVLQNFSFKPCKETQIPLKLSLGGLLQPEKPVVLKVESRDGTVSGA
Cytochrome P450 2C9, sequence (P11712 whole entry): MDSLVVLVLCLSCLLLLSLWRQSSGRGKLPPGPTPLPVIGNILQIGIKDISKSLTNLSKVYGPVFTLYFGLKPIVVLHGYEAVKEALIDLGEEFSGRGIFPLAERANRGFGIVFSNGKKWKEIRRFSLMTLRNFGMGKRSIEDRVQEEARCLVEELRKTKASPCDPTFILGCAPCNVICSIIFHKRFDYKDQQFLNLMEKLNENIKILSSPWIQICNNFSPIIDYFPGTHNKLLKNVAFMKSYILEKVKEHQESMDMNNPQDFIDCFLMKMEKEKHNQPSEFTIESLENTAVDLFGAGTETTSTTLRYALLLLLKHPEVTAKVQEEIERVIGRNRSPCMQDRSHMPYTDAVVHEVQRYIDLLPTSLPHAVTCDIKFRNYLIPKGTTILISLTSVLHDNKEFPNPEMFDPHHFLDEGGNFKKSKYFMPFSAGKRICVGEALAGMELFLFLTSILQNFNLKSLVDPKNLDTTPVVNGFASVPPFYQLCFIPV
Cytochrome P450 2D6, sequence (P10635 whole entry): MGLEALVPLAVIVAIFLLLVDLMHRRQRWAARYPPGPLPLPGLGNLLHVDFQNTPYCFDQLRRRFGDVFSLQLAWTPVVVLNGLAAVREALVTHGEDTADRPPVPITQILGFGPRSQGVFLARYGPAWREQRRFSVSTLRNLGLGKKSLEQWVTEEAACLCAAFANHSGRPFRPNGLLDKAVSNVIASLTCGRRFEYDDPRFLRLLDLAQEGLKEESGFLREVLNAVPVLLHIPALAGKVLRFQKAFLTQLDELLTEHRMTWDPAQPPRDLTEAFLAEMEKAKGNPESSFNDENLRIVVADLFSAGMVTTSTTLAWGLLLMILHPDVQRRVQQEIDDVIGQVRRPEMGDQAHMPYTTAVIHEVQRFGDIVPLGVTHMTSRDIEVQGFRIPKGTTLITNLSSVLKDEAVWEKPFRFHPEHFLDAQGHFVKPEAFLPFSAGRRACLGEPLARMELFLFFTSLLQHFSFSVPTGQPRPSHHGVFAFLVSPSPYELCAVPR

In the case of `CN(CCO)C(=O)c1ccc(Cc2onc3c2C(=O)CC(C)(C)C3)cc1`, the “inhibition (INH)” value [1] is reported as “Not Active”, the hepatic extraction ratio [2] is reported as 0.34 and the bioavailability [3] is reported as 91%. For the same molecule, the CL [4] was 24%, the Activity [5] was -62.4% and the IC50 [6] was 0.092 µM. For the same molecule, the pIC50 [6] was 7, the “Cp(f)” value [7] was 46 nM and the IC50 [8] was over 31.6 µM. For the same molecule, the bioavailability [9] was 14%, the CL [10] was 9.7% and the “Cp(f)” value [11] was 5700 nM. The “inhibition (INH)” value [12] was “Not Active”, the “inhibition (INH)” value [13] was “Not Active” and the Ratio IC50 [14] was 100. For the same molecule, the hepatic extraction ratio [15] was under 0.24, the Activity [16] was “Non-Toxic” and the concentration at 3 h [17] was 78 nM. The hepatic extraction ratio [18] was 0.52, the concentration at 0.25 h [19] was 9600 nM and the pIC50 [20] was 5. For the same molecule, the inhibition [21] was “Dose-dependent effect”, the hepatic extraction ratio [22] was under 0.21 and the hepatic extraction ratio [23] was under 0.3. It also gave a CL [24] of 32%, an Activity [25] of -87.9% and an Activity [26] of -92.3%. For the same molecule, the “inhibition (INH)” value [27] was “Not Active”, the bioavailability [28] was 91% and the concentration at 0.25 h [29] was 160 nM. The IC50 [30] was over 31.6 µM and the “Cp(f)” value [31] was 93 nM.
